For experiment [1], the target named is T1, MLLT1 (Homo sapiens, UniProt Q03111).
T1 construct: host or cells: MV4-11
T1 sequence (Q03111 1-559): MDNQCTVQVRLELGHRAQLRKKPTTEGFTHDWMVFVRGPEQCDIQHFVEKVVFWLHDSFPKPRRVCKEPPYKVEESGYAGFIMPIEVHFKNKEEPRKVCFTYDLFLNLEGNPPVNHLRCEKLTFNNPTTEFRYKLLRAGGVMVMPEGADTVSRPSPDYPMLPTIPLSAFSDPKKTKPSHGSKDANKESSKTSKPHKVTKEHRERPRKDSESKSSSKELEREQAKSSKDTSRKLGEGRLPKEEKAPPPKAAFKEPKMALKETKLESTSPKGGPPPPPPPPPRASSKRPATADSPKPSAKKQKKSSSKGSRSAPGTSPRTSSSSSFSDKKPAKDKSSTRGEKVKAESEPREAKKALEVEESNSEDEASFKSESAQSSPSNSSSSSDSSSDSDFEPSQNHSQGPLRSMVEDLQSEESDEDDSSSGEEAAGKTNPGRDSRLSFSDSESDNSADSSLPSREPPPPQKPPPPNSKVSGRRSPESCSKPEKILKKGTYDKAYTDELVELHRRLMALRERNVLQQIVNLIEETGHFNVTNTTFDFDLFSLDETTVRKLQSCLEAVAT
Nature of the experiment: MLLT1 degradation assay in MV4-11 cells (JESS chemiluminescent detection), three concentrations, 24 h. It counts as cell-based. Conditions: with respect to DMSO control. The method in brief:
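MV4-11 cells treated 24 h at 37° C, 5% CO2 with 1000, 100 and 10 nM compound (0.1% DMSO final). MLLT1 quantified by automated capillary chemiluminescent immunodetection; band peak area expressed as % degradation relative to DMSO control.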

Experiment [2] deals with MV4-11 cells. The experiment is described as follows: MV4-11 cellular proliferative assay, Assay Format A (CellTiter-Glo, 120 hours). The settings on record: Homo sapiens. It counts as cell-based. The method, then:
An MV4-11 proliferation assay was used to test the ability of compounds to reduce cell viability. MV4-11 cells (ATCC #CRL9591) were grown in IMDM medium (11510596, Gibco) supplemented with 10% fetal bovine serum (F7524, Gibco) and 1% Penicillin/Streptomycin (15140-122, Gibco) at 37° C. with 5% CO2. Cells were seeded in 384-well Elplasia plates (4447, Corning) at a density of 50 cells/well and treated with vehicle (DMSO) or compounds (10 serial semi-log dilutions, 30 μM as top concentration).
After 120 hours of treatment, cells were incubated for 10 min at RT with the CellTiter-Glo (CTG) reagent (G7571, Promega). Measurement of the luminescence signal was performed on a microplate reader (Ensight, PerkinElmer). CTG reagent measures the amount of ATP, which is directly proportional to the number of cells, to determine the number of viable cells in culture.
The data were analysed as follows:
where x is the measured raw signal value of a well, (cr) is the median of the measured signal values for the Central Reference (DMSO) wells on a plate, (sr) is the median of the measured signal values for the Scale Reference (reference compound) wells on a plate.
where the experimental set-up assumes the Hill parameters in certain ranges: S0~Central Reference (CR) from normalization (=Bottom), Sinf~Scale Reference (SR) from normalization (=Top), nHill~1, AC50~within the measured concentration range.
For orientation: Cellular ATP, detected with luciferase, serves as a proxy for viable cell number.

This note sets out measurements from patent US20260191968A1, “PROTAC DEGRADERS OF MLLT1 AND/OR MLLT3” (DARK BLUE THERAPEUTICS LTD, priority 2024, published 2026).

As a reminder, the IC50 is the concentration that gives 50% inhibition. Regarding `C[C@H](C#Cc1cccc2c1CN(C1CCC(=O)NC1=O)C2=O)Oc1ccc(C(=O)Nc2cc3[nH]c([C@H]4CCCN4C)cc3cn2)cc1` (stereo partly drawn) [Example 25, 4-(((2R)-4-(2-(2,6-dioxopiperidin-3-yl)-1-oxoisoindolin-4-yl)but-3-yn-2-yl)oxy)-N-(2-((R)-1-methylpyrrolidin-2-yl)-1H-pyrrolo[3,2-c]pyridin-6-yl)benzamide], in experiment [1], the “MLLT1% Degradation @ 0.01 μM” value is given as “A (Category A: A ≥ 75% degradation)”, the “MLLT1% Degradation @ 0.1 μM” value is on record as “A (Category A: A ≥ 75% degradation)” and the “MLLT1% Degradation @ 1 μM” value is reported as “A (Category A: A ≥ 75% degradation)”. The molecule also yielded an IC50 in experiment [2] of at most 0.1 µM.
For `CN1CCC[C@H]1c1cc2cnc(NC(=O)c3ccc(CCCNc4cccc5c4C(=O)N(C4CCC(=O)NC4=O)C5=O)cc3)cc2[nH]1` (stereo partly drawn) [Example 37, 4-(3-{[2-(2,6-dioxopiperidin-3-yl)-1,3-dioxoisoindol-4-yl]amino}propyl)-N-{2-[(2S)-1-methylpyrrolidin-2-yl]-1H-pyrrolo[3,2-c]pyridin-6-yl}benzamide], in experiment [1], the “MLLT1% Degradation @ 0.01 μM” value is recorded as “B (Category B: 50% ≤ B < 75% degradation)”, the “MLLT1% Degradation @ 0.1 μM” value is “A (Category A: A ≥ 75% degradation)” and the “MLLT1% Degradation @ 1 μM” value was “A (Category A: A ≥ 75% degradation)”. This molecule also gave a 50% inhibitory concentration (IC50) in experiment [2] of at most 0.1 µM.
`CN1CCC[C@@H]1c1cc2cnc(NC(=O)c3cccc(OCC#Cc4cccc5c4CN(C4CCC(=O)NC4=O)C5=O)c3)cc2[nH]1` (stereo partly drawn) [Example 58, 3-((3-(2-(2,6-dioxopiperidin-3-yl)-1-oxoisoindolin-4-yl)prop-2-yn-1-yl)oxy)-N-(2-((R)-1-methylpyrrolidin-2-yl)-1H-pyrrolo[3,2-c]pyridin-6-yl)benzamide]: in experiment [1], the “MLLT1% Degradation @ 0.01 μM” value is reported as “B (Category B: 50% ≤ B < 75% degradation)”, the “MLLT1% Degradation @ 0.1 μM” value is on record as “A (Category A: A ≥ 75% degradation)” and the “MLLT1% Degradation @ 1 μM” value is “C (Category C: 25% ≤ C < 50% degradation)”. The molecule further returned an IC50 in experiment [2] of at most 0.1 µM.
As for `CN1CCC[C@@H]1c1cc2cnc(NC(=O)COCCCCNc3cccc4c3C(=O)N(C3CCC(=O)NC3=O)C4=O)cc2[nH]1` (stereo partly drawn) [Example 40, 2-(4-((2-(2,6-dioxopiperidin-3-yl)-1,3-dioxoisoindolin-4-yl)amino)butoxy)-N-(2-((R)-1-methylpyrrolidin-2-yl)-1H-pyrrolo[3,2-c]pyridin-6-yl)acetamide], in experiment [1], the “MLLT1% Degradation @ 0.1 μM” value is reported as “C (Category C: 25% ≤ C < 50% degradation)” and the “MLLT1% Degradation @ 1 μM” value was “B (Category B: 50% ≤ B < 75% degradation)”. This molecule also displayed a half-inhibitory concentration (IC50) in experiment [2] of at most 0.1 µM.
Regarding `CN1CCC[C@@H]1c1cc2cnc(NC(=O)c3ccc(OCCCC#Cc4cccc5c4CN(C4CCC(=O)NC4=O)C5=O)cc3)cc2[nH]1` (stereo partly drawn) [Example 56, 4-((5-(2-(2,6-dioxopiperidin-3-yl)-1-oxoisoindolin-4-yl)pent-4-yn-1-yl)oxy)-N-(2-((R)-1-methylpyrrolidin-2-yl)-1H-pyrrolo[3,2-c]pyridin-6-yl)benzamide], in experiment [1], the “MLLT1% Degradation @ 0.01 μM” value is on record as “A (Category A: A ≥ 75% degradation)”, the “MLLT1% Degradation @ 0.1 μM” value is given as “A (Category A: A ≥ 75% degradation)” and the “MLLT1% Degradation @ 1 μM” value was “A (Category A: A ≥ 75% degradation)”. In experiment [2], the IC50 was at most 0.1 µM.
Turning to `CN1CCC[C@@H]1c1cc2cnc(NC(=O)c3ccc(-c4ccn(CCCC#Cc5cccc6c5CN(C5CCC(=O)NC5=O)C6=O)n4)cc3)cc2[nH]1` (mixture of isomers) [Example 20, 4-(1-(5-(2-(2,6-dioxopiperidin-3-yl)-1-oxoisoindolin-4-yl)pent-4-yn-1-yl)-1H-pyrazol-3-yl)-N-(2-((R)-1-methylpyrrolidin-2-yl)-1H-pyrrolo[3,2-c]pyridin-6-yl)benzamide], in experiment [1], the “MLLT1% Degradation @ 0.01 μM” value is given as “B (Category B: 50% ≤ B < 75% degradation)”, the “MLLT1% Degradation @ 0.1 μM” value is “B (Category B: 50% ≤ B < 75% degradation)” and the “MLLT1% Degradation @ 1 μM” value is given as “C (Category C: 25% ≤ C < 50% degradation)”. For the same molecule, in experiment [2], the half-inhibitory concentration (IC50) was at most 0.1 µM.
In the case of `CN1CCC[C@@H]1c1cc2cnc(NC(=O)c3ccc(OCC#Cc4cccc5c4CN(C4CCC(=O)NC4=O)C5=O)cc3)cc2[nH]1` (stereo partly drawn) [Example 51, 4-((3-(2-(2,6-dioxopiperidin-3-yl)-1-oxoisoindolin-4-yl)prop-2-yn-1-yl)oxy)-N-(2-((R)-1-methylpyrrolidin-2-yl)-1H-pyrrolo[3,2-c]pyridin-6-yl)benzamide], in experiment [1], the “MLLT1% Degradation @ 0.01 μM” value was “A (Category A: A ≥ 75% degradation)”, the “MLLT1% Degradation @ 0.1 μM” value is listed as “A (Category A: A ≥ 75% degradation)” and the “MLLT1% Degradation @ 1 μM” value is on record as “A (Category A: A ≥ 75% degradation)”. In experiment [2], the IC50 is at most 0.1 µM.
With `CN1CCC[C@@H]1c1cc2cnc(NC(=O)CCCCC3CCN(c4cccc5c4C(=O)N(C4CCC(=O)NC4=O)C5=O)CC3)cc2[nH]1` (stereo partly drawn) [Example 42, 5-(1-(2-(2,6-Dioxopiperidin-3-yl)-1,3-dioxoisoindolin-4-yl)piperidin-4-yl)-N-(2-((R)-1-methylpyrrolidin-2-yl)-1H-pyrrolo[3,2-c]pyridin-6-yl)pentanamide], in experiment [1], the “MLLT1% Degradation @ 0.1 μM” value is on record as “B (Category B: 50% ≤ B < 75% degradation)” and the “MLLT1% Degradation @ 1 μM” value was “B (Category B: 50% ≤ B < 75% degradation)”. For the same molecule, in experiment [2], the IC50 is at most 0.1 µM.
As to `CN1CCC[C@@H]1c1cc2cnc(NC(=O)c3ccc(-c4cnn(CCCC5CCN(c6cccc7c6CN(C6CCC(=O)NC6=O)C7=O)CC5)c4)cc3)cc2[nH]1` (stereo partly drawn) [Example 35, 4-[1-(3-{1-[2-(2,6-dioxopiperidin-3-yl)-1-oxo-3H-isoindol-4-yl]piperidin-4-yl}propyl)pyrazol-4-yl]-N-{2-[(2R)-1-methylpyrrolidin-2-yl]-1H-pyrrolo[3,2-c]pyridin-6-yl}benzamide], in experiment [1], the “MLLT1% Degradation @ 0.01 μM” value is “A (Category A: A ≥ 75% degradation)”, the “MLLT1% Degradation @ 0.1 μM” value is reported as “A (Category A: A ≥ 75% degradation)” and the “MLLT1% Degradation @ 1 μM” value is reported as “A (Category A: A ≥ 75% degradation)”. In addition, the IC50 in experiment [2] is at most 0.1 µM.
Regarding `CN1CCC[C@@H]1c1cc2cnc(NC(=O)c3ccc(CCCNc4cccc5c4C(=O)N(C4CCC(=O)NC4=O)C5=O)cc3)cc2[nH]1` (stereo partly drawn) [Example 36, 4-(3-{[2-(2,6-dioxopiperidin-3-yl)-1,3-dioxoisoindol-4-yl]amino}propyl)-N-{2-[(2R)-1-methylpyrrolidin-2-yl]-1H-pyrrolo[3,2-c]pyridin-6-yl}benzamide], in experiment [1], the “MLLT1% Degradation @ 0.01 μM” value is listed as “A (Category A: A ≥ 75% degradation)”, the “MLLT1% Degradation @ 0.1 μM” value is recorded as “A (Category A: A ≥ 75% degradation)” and the “MLLT1% Degradation @ 1 μM” value is recorded as “A (Category A: A ≥ 75% degradation)”. In experiment [2], this molecule returned an IC50 of at most 0.1 µM.
For the molecule `CN1CCC[C@@H]1c1cc2cnc(NC(=O)c3ccc(CCC#Cc4cccc5c4CN(C4CCC(=O)NC4=O)C5=O)cc3F)cc2[nH]1` (stereo partly drawn) [Example 54, 4-(4-(2-(2,6-dioxopiperidin-3-yl)-1-oxoisoindolin-4-yl)but-3-yn-1-yl)-2-fluoro-N-(2-((R)-1-methylpyrrolidin-2-yl)-1H-pyrrolo[3,2-c]pyridin-6-yl)benzamide], in experiment [1], the “MLLT1% Degradation @ 0.01 μM” value is “A (Category A: A ≥ 75% degradation)”, the “MLLT1% Degradation @ 0.1 μM” value is reported as “A (Category A: A ≥ 75% degradation)” and the “MLLT1% Degradation @ 1 μM” value was “B (Category B: 50% ≤ B < 75% degradation)”. The IC50 in experiment [2] is at most 0.1 µM.
Turning to `CN1CCC[C@@H]1c1cc2cnc(NC(=O)CCCC3CCN(c4cccc5c4C(=O)N(C4CCC(=O)NC4=O)C5=O)CC3)cc2[nH]1` (stereo partly drawn) [Example 41, 4-(1-(2-(2,6-dioxopiperidin-3-yl)-1,3-dioxoisoindolin-4-yl)piperidin-4-yl)-N-(2-((R)-1-methylpyrrolidin-2-yl)-1H-pyrrolo[3,2-c]pyridin-6-yl)butanamide], in experiment [1], the “MLLT1% Degradation @ 0.01 μM” value is “B (Category B: 50% ≤ B < 75% degradation)”, the “MLLT1% Degradation @ 0.1 μM” value is reported as “B (Category B: 50% ≤ B < 75% degradation)” and the “MLLT1% Degradation @ 1 μM” value was “A (Category A: A ≥ 75% degradation)”. In addition, the IC50 in experiment [2] is at most 0.1 µM.
